According to patent publication US8980914B2, “Therapeutic agent for chronic obstructive pulmonary disease and method for treatment for chronic obstructive pulmonary disease with the same” (Mariposa Health Limited, priority 2003, dated 2015):

How the values were obtained:
[1] = Peroxynitrite scavenging activity (oxidation of dihydrorhodamine 123); type: biochemical; settings: oxidation of dihydrorhodamine 123 by peroxynitrite, phosphate buffer pH 7.4; read-out: 50% Inhibitory concentration on oxidation (IC50)
Protocol: This test was performed by estimating the antioxidative effect of the test substance using peroxynitrite quantitative method as a test system with dihydrorhodamine 123 so as to confirm the ability of the 7-aminoquinolinone derivatives of the present invention to scavenge peroxynitrite. This is a method described in NITRIC OXIDE: Biology and Chemistry Vol. 1, 145-157, 1997.
The test substance was weighted in an amount of approximately 10 mg, dissolved in a 10% Tween 80 solution and adjusted to 5×10^−3 mol/L. Then, the solution was diluted with 0.1 mol/L phosphate buffer (pH=7.4) to 5×10^−4 mol/L. The diluent was further diluted stepwise with a phosphate buffer containing 1% Tween 80 to obtain substance solution. The preparation was conducted before use. The final concentration of the test substance was adjusted to 3×10^−6, 1×10^−6, 3×10^−7, 1×10^−7, and 3×10^−8 mol/L, respectively.
To 20 μL of peroxynitrite solution (manufactured by DOJINDO LABORATORIES), 1980 μL of 0.1 mol/L sodium hydroxide was added and the mixture was diluted 100 times. The absorbance of the maximum absorption wavelength near 300 nm was measured using a UV-visible spectrophotometer and the concentration was calculated according to the following equation. Concentration(mmol/L)=(absorbance/1670)×100×1000
Based on the concentration calculated in the above section, dilution with a 0.1 mol/L sodium hydroxide solution was conducted and adjusted to 10 mmol/L. 990 μL of a 0.1 mol/L sodium hydroxide solution was taken into a 1.5 mL-Eppen tube. To the Eppen tube, 10 μL of a solution adjusted to 10 mmol/L was added to prepare a 100 μmol/L solution.
Dihydrorhodamine 123 was dissolved into 1.155 mL of dimethylsulfoxide, and adjusted to the concentration of 25 mmol/L. This solution was dispensed into 20 μL aliquots and then the aliquots were stored in a biomedical freezer (about −20° C.) and used as a stock solution.
To 490 μL of 0.02% Tween 80 containing 0.1 mol/L phosphate buffer, 10 μL of 25 mmol/L of a thawed dihydrorhodamine 123 stock solution was added to make 500 μmol/L. The prepared solution was diluted with 0.1 mol/L phosphate buffer (pH=7.4) 1000 times to prepare 500 nmol/L of a dihydrorhodamine 123 solution.
(1) To a 3.5 mL brown vial containing a stirring bar, 1470 μL of a 500 nmol/L dihydrorhodamine 123 solution and then 15 μL of the test substance solution was added. For the blank and control groups, 15 μL of 0.1 mol/L phosphate buffer containing 1% Tween 80, as a solvent for the test substance solution, was added. After the addition, the mixture was stirred with a stirrer for 30 minutes.
15 μL of a 100 μmol/L peroxynitrite solution was added while stirring. For the blank group, 15 μL of a 0.1 mol/L sodium hydroxide solution was added. After stirring for 15 minutes, fluorescence intensity was measured.
Fluorescence intensity of the reaction solution was measured using a spectrophotofluorometer under the following measuring conditions: excitation wavelength, 500 nm; emission wavelength, 536 nm; measuring times, one; response, 1 sec; photomultiplier tube voltage, Low; band width at excitation side, 10 nm; bandwidth at emission side, 10 nm.
The oxidation rate of dihydrorhodamine 123 when adding the test substance was calculated, taking the oxidation rate of dihydrorhodamine 123 for control as 100, according to the following equation: Oxidation rate (%) of dihydrorhodamine 123=(measured value for each group−measured value for blank)/(measured for control−measured value for blank)×100 Calculation of Oxidation Inhibition Concentration (IC50)
50% oxidation concentration, that is 50% oxidation inhibition concentration (IC50) was calculated by giving a straight line from two points surrounding 50% oxidation rate.

[2] = system: airway hyper-responsiveness induced by ozone; experiment: Airway hyper-responsiveness model induced by inhalation of ozone in guinea pigs (lung resistance after methacholine); type: in vivo; settings: RLung after methacholine inhalation 5 hours after end of ozone exposure
Protocol: This test was performed so as to evaluate the pharmacological effect of the 7-aminoquinolinone derivatives of the present invention in an airway hyper-responsiveness model induced by inhalation of ozone in guinea pigs. The test procedure will now be described.
Guinea pigs were fasted for 18 hours or more. The animals were administered the test substance (30 mg/kg) and theophylline (100 mg/kg) one hour before ozone inhalation. For the non-stimulation group and the vehicle control group, vehicle (5 mL/kg) was administered similarly.
The animals were put into an acryl-made chamber (29×19×25 cm), subjected to induction of ozone generated by an ozonizer (EUV3-XU; EBARA JITSUGYO CO, LTD.) and exposed for 2 hours. The ozone concentration in the chamber was approximately 3 ppm. It was confirmed every 30 minutes that this concentration was maintained during exposure by an ozone monitor (EG-5000; EBARA JITSUGYO CO, LTD.) (measured value: 2.53 to 3.40 ppm). For the non-stimulation group, the animals were exposed to a mixed gas (oxygen: 95%, carbonic acid gas: 5%) similarly. The ozone concentration at that time was also confirmed similarly (acceptable concentration: 0.01 ppm or less, measured value: 0.00 to 0.01 ppm).
The measurement of airway hyper-responsiveness was performed 5 hours after the end of ozone exposure. The measurement of lung resistance (RLung) was performed according to the method of R. E. Giles et al. in the same manner as in Example 2. That is, the animals were anesthetized with Nembutal (Trade name: 50 mg/kg, i.p., sodium pentobarbital) and subjected to cannulation into esophagus and trachea. The esophagus and trachea cannulas were connected to a respirator (ventilation volume: 6 mL/kg, ventilation frequency: 60 times/min, SN-480-7) and the RLung after inhalation of methacholine (100 μg/mL, for 1.5 minutes) was measured by the respiratory function analyzer (PULMOS-II; M.I.P.S) through a flow sensor (connected to Validyle DF45F (for flow rate) and DP45P (for pressure)). The inhalation of methacholine was performed with an ultrasonic nebuliser (NE-U17; Omron Matsuzaka) connected to the respirator under artificial respiration.
Used RLung represents 10 breaths having a stable value in a range from 1 to 30 breaths after initiation of each measurement for both before inhalation and during methacholine inhalation. The average of the RLung was calculated. The extreme values in RLung that occurred when animal moved during the measurement were excluded from the calculations.
The percentage of increase of RLung was calculated by the following equation. Increase in lung resistance (%)=([RLung after inhalation of methacholine]−[RLung before administration])/[RLung before administration]×100

[3] = system: airway hyper-responsiveness induced by peroxynitrite; experiment: Airway hyper-responsiveness model induced by exposure of peroxynitrite in guinea pigs (lung resistance after histamine); type: in vivo; settings: 30 mg/kg orally one hour before peroxynitrite, histamine 32 μg/kg i.v. on 5-day, control group 759, non-stimulation group 382
Protocol: This test was performed so as to investigate the pharmacological effect of the 7-aminoquinolinone derivative of the present invention on an airway hyper-responsiveness model induced by exposure of peroxynitrite in guinea pigs. The test procedure will now be described.
Guinea pigs were fasted for 18 hours or more. The animals were administrated the test substance (30 mg/kg) orally one hour before exposure of peroxynitrite and the neck was dissected under ether anesthesia, and then the trachea was exposed. 0.1 mL of 1 mmol/L peroxynitrite was administered intratracheally into pulmonary side by pushing with air and, after the administration, the incision was sutured and disinfected.
The measurement of airway hyper-responsiveness was performed on 5-day, taking the day of model preparation 0-day. Guinea pigs were fasted for 18 hours or more. The measurement of lung resistance; (RLung) was performed according to the method of R. E. Giles et al. (R. E. Giles, M. P. Finkel and J. Mazurowski: Use of an Analog On-Line Computer for the Evaluation of Pulmonary Resistance and Dynamic Compliance in the Anesthetized Dog. Arch. Int. Pharmacodyn. 194, 213-222 (1971)). That is, the animals were anesthetized with Nembutal (Trade name: 40 mg/kg, i.v., sodium pentobarbital) and subjected to cannulation into esophagus, trachea and jugular veins (for administration of histamine). The esophagus and trachea cannulas were connected to an artificial respirator (ventilation volume: 6 mL/kg, ventilation frequency: 60 times/min, SN-480-7) and the Rlung was measured after intravenous administration (dose of 0.1 mL/kg) of physiological saline solution and histamine (32 μg/kg) using a total plethysmograph system via flow sensor, connected to Validyne DF45F (for flow rate) and DP45P (for pressure). RLung before administration was determined by averaging values of any 3 out of 20 breaths, RLung after administration of physiological saline solution was determined by averaging values of any 3 out of 5 breaths, and RLung after administration of histamine was determined by averaging values of the following 3 breaths; 1) showing the maximum lung resistance, 2) taken just before and 3) taken just after the one with the maximum lung resistance, out less than 20 breaths. (The extreme values in RLung that occurred when animal moved during the measurement were excluded from the calculations.)
The percentage of increase in lung resistance was calculated by the following equation. Increase in lung resistance (%)=([RLung after administration of histamine]−[RLung before administration])/[RLung before administration]×100

[4] = test substance 30 mg/kg one hour before ozone inhalation

COc1c(OC(C)=O)c(=O)n(C)c2cc(N)ccc12 [Compound 32]
IC50 [1]: 0.96 µM
Increase in lung resistance (%) [2, 4]: 32%
Increase in lung resistance (%) [3]: 435%

CCCCCCOc1c(O)c2ccc(N)cc2n(C)c1=O [Compound 53]
IC50 [1]: 0.88 µM
Increase in lung resistance (%) [2, 4]: 29%
Increase in lung resistance (%) [3]: 440%

CCCCCCCCOc1c(O)c2ccc(N)cc2n(C)c1=O [Compound 55]
IC50 [1]: 0.96 µM
Increase in lung resistance (%) [2, 4]: 26%
Increase in lung resistance (%) [3]: 425%

C=CCOc1c(O)c2ccc(N)cc2n(C)c1=O [Compound 56]
IC50 [1]: 1.05 µM
Increase in lung resistance (%) [2, 4]: 30%
Increase in lung resistance (%) [3]: 434%

COc1c(O)c(=O)n(C)c2cc(N)ccc12 [Compound 58]
IC50 [1]: 0.81 µM
Increase in lung resistance (%) [2, 4]: 27%
Increase in lung resistance (%) [3]: 423%

CCCCCCCCOc1c(O)c2ccc(N)cc2n(CC)c1=O [Compound 87]
IC50 [1]: 0.84 µM
Increase in lung resistance (%) [2, 4]: 29%
Increase in lung resistance (%) [3]: 432%

CCCCCCOc1c(O)c2ccc(N)cc2n(CCCCCC)c1=O [Compound 147]
IC50 [1]: 0.79 µM
Increase in lung resistance (%) [2, 4]: 29%
Increase in lung resistance (%) [3]: 429%

CCCCCCCCn1c(=O)c(OC)c(O)c2ccc(N)cc21 [Compound 173]
IC50 [1]: 0.89 µM
Increase in lung resistance (%) [2, 4]: 30%
Increase in lung resistance (%) [3]: 430%

CCCCCCCCn1c(=O)c(O)c(OC)c2ccc(N)cc21 [Compound 181]
IC50 [1]: 0.94 µM
Increase in lung resistance (%) [2, 4]: 25%
Increase in lung resistance (%) [3]: 425%

CCCCCCNc1ccc2c(O)c(OC)c(=O)[nH]c2c1 [Compound 204]
IC50 [1]: 0.89 µM
Increase in lung resistance (%) [2, 4]: 37%
Increase in lung resistance (%) [3]: 439%

CCNc1ccc2c(O)c(OC)c(=O)n(C)c2c1 [Compound 236]
IC50 [1]: 0.88 µM
Increase in lung resistance (%) [2, 4]: 28%
Increase in lung resistance (%) [3]: 428%

CCCCNc1ccc2c(OC)c(O)c(=O)n(CC)c2c1 [Compound 276]
IC50 [1]: 0.82 µM
Increase in lung resistance (%) [2, 4]: 30%
Increase in lung resistance (%) [3]: 430%

CCCCOc1c(O)c2ccc(N(C)C)cc2n(CCCC)c1=O [Compound 303]
IC50 [1]: 0.84 µM
Increase in lung resistance (%) [2, 4]: 27%
Increase in lung resistance (%) [3]: 427%

CCCCn1c(=O)c(O)c(OC)c2ccc(N(C)C)cc21 [Compound 309]
IC50 [1]: 0.8 µM
Increase in lung resistance (%) [2, 4]: 34%
Increase in lung resistance (%) [3]: 435%

CCCCCCn1c(=O)c(OC)c(O)c2ccc(NCC)cc21 [Compound 330]
IC50 [1]: 0.79 µM
Increase in lung resistance (%) [2, 4]: 22%
Increase in lung resistance (%) [3]: 417%

CCCCCCCCn1c(=O)c(OC)c(O)c2ccc(NCC)cc21 [Compound 359]
IC50 [1]: 0.85 µM
Increase in lung resistance (%) [2, 4]: 31%
Increase in lung resistance (%) [3]: 431%

CCCCCCCCOc1c(O)c2ccc(NC(C)=O)cc2n(C)c1=O [Compound 396]
IC50 [1]: 0.94 µM
Increase in lung resistance (%) [2, 4]: 22%
Increase in lung resistance (%) [3]: 421%

CCCCCCOc1c(O)c(=O)n(C)c2cc(NC(C)=O)ccc12 [Compound 401]
IC50 [1]: 1.01 µM
Increase in lung resistance (%) [2, 4]: 25%
Increase in lung resistance (%) [3]: 420%

CCCCCCOc1c(O)c2ccc(NC=O)cc2n(CCCC)c1=O [Compound 459]
IC50 [1]: 0.94 µM
Increase in lung resistance (%) [2, 4]: 26%
Increase in lung resistance (%) [3]: 427%

COc1c(O)c2ccc(NC(=O)c3ccccc3)cc2n(C)c1=O [Compound 514]
IC50 [1]: 0.91 µM
Increase in lung resistance (%) [2, 4]: 31%
Increase in lung resistance (%) [3]: 434%

CCCCCCCCOc1c(O)c2ccc(NC(=O)c3ccccc3)cc2n(C)c1=O [Compound 519]
IC50 [1]: 0.83 µM
Increase in lung resistance (%) [2, 4]: 26%
Increase in lung resistance (%) [3]: 440%

COc1cc(C=CC(=O)Nc2ccc3c(O)c(OC)c(=O)n(C)c3c2)cc(OC)c1O [Compound 546]
IC50 [1]: 0.79 µM
Increase in lung resistance (%) [2, 4]: 27%
Increase in lung resistance (%) [3]: 422%

Cn1c(=O)c2[nH]cnc2n(C)c1=O [theophylline, reference compound]
Increase in lung resistance (%) ([2]; theophylline 100 mg/kg one hour before ozone inhalation): 26%
